This note sets out measurements from ChEMBL document CHEMBL4052724, “Influence of the cellular environment on ligand binding kinetics at membrane-bound targets” (Bioorg Med Chem Lett, 2017).

Test [1] deals with T1, Type-1 angiotensin II receptor (Homo sapiens) (UniProt P30556).
T1 sequence (whole entry): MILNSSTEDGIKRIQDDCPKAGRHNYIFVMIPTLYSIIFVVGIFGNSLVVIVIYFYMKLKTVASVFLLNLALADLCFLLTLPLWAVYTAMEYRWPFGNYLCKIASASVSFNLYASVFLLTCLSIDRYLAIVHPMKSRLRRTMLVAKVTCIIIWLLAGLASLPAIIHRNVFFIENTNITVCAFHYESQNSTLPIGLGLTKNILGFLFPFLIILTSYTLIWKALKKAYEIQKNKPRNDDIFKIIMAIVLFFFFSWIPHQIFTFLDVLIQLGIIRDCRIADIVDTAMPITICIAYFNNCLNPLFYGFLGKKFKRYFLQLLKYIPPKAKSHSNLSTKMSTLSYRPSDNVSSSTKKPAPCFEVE
Description: Antagonist activity at human AT1 receptor expressed in CHO cells assessed as reduction in angiotensin 2-induced inositol phosphate accumulation by measuring residence time constant preincubated with cells followed by compound washout in presence of losartan and subsequent addition of angiotensin 2 for 5 mins. The test is classed as functional, cell-based.

The target of test [2] is T1, Type-1 angiotensin II receptor (Homo sapiens). Description: Antagonist activity at human AT1 receptor expressed in CHO cells assessed as reduction in angiotensin 2-induced inositol phosphate accumulation by measuring dissociation rate constant preincubated with cells followed by compound washout in presence of losartan and subsequent addition of angiotensin 2 for 5 mins. Format: functional, cell-based.

The target is the same in test [3]. The test can be described thus: Antagonist activity at human AT1 receptor expressed in CHO cells assessed as reduction in angiotensin 2-induced inositol phosphate accumulation by measuring residence time constant preincubated with cells followed by compound washout and subsequent addition of angiotensin 2 for 5 mins. Format: functional, cell-based.
The target is the same in test [4]. Description: Antagonist activity at human AT1 receptor expressed in CHO cells assessed as reduction in angiotensin 2-induced inositol phosphate accumulation by measuring dissociation rate constant preincubated with cells followed by compound washout and subsequent addition of angiotensin 2 for 5 mins. The test is classed as functional, cell-based.
Test [5] shares this target. The test can be described thus: Binding affinity to human AT1 receptor expressed in CHO cells assessed as residence time at 1.5 nM incubated for 60 mins followed by compound washout in presence of losartan. The test is classed as cell-based.
For test [6] the target is unchanged. Description: Binding affinity to human AT1 receptor expressed in CHO cells assessed as dissociation rate constant at 1.5 nM incubated for 60 mins measured after isotopic dilution. The test is classed as cell-based.
Test [7] shares this target. The test can be described thus: Binding affinity to human AT1 receptor expressed in CHO cells assessed as dissociation rate constant at 1.5 nM incubated for 60 mins followed by compound washout. Format: cell-based.
For test [8] the target is unchanged. Description: Binding affinity to human AT1 receptor expressed in CHO cells assessed as residence time at 1.5 nM incubated for 60 mins measured after isotopic dilution. The test is classed as cell-based.
The target is the same in test [9]. The test can be described thus: Binding affinity to human AT1 receptor expressed in CHO cells assessed as residence time at 1.5 nM incubated for 60 mins followed by compound washout. The test is classed as cell-based.
Test [10] has the same target. Description: Binding affinity to human AT1 receptor expressed in CHO cells assessed as dissociation rate constant at 1.5 nM incubated for 60 mins followed by compound washout in presence of losartan. Format: cell-based.
Test [11] has the same target. Description: Displacement of [3H]-candesartan from human AT1 receptor expressed in CHO cells assessed as residence time at 100 nM pre-incubated with cells followed by compound washout and subsequent addition of [3H]-candesartan up to 60 mins. The test is classed as cell-based.
The target is the same in test [12]. The test can be described thus: Binding affinity to human AT1 receptor expressed in CHO cells assessed as dissociation rate constant at 3 nM incubated for 60 mins followed by compound washout. The test is classed as cell-based.
Test [13] has the same target. Description: Binding affinity to human AT1 receptor expressed in CHO cells assessed as dissociation rate constant at 3 nM incubated for 60 mins measured after isotopic dilution. Format: cell-based.
The target is the same in test [14]. The test can be described thus: Binding affinity to human AT1 receptor expressed in CHO cells assessed as residence time at 3 nM incubated for 60 mins followed by compound washout in presence of losartan. Format: cell-based.
Test [15] has the same target. The test can be described thus: Binding affinity to human AT1 receptor expressed in CHO cells assessed as residence time at 3 nM incubated for 60 mins measured after isotopic dilution. The test is classed as cell-based.
For test [16] the target is unchanged. Description: Binding affinity to human AT1 receptor expressed in CHO cells assessed as dissociation rate constant at 3 nM incubated for 60 mins followed by compound washout in presence of losartan. Format: cell-based.
The target is the same in test [17]. Description: Displacement of [3H]-candesartan from human AT1 receptor expressed in CHO cells assessed as dissociation rate constant at 100 nM pre-incubated with cells followed by compound washout and subsequent addition of [3H]-candesartan up to 60 mins. Format: cell-based. In general terms: In a radioligand displacement assay an active substance lowers the binding of a labelled ligand.

Test [18] shares this target. Description: Binding affinity to human AT1 receptor expressed in CHO cells assessed as residence time at 3 nM incubated for 60 mins followed by compound washout. Format: cell-based.
The target is the same in test [19]. Description: Displacement of [3H]-candesartan from human AT1 receptor expressed in CHO cells assessed as residence time at 1.5 nM pre-incubated with cells followed by compound washout and subsequent addition of [3H]-candesartan up to 60 mins. The test is classed as cell-based.
For test [20] the target is unchanged. Description: Displacement of [3H]-candesartan from human AT1 receptor expressed in CHO cells assessed as dissociation rate constant at 1.5 nM pre-incubated with cells followed by compound washout and subsequent addition of [3H]-candesartan up to 60 mins. The test is classed as cell-based.

Take `CCCCc1nc(Cl)c(C(=O)O)n1Cc1ccc(-c2ccccc2-c2nn[nH]n2)cc1`: the TIME is 0.8 h in test [1] and 1.05 h in [3]. The values for the K in test [2] and in [4] were 0.021 min⁻¹ and 0.016 min⁻¹, respectively.
Consider `CCCCC(=O)N(Cc1ccc(-c2ccccc2-c2nn[nH]n2)cc1)[C@@H](C(=O)O)C(C)C`, for which the TIME in [5] was determined as 0.333 h; in test [8], 0.417 h; in [9], 0.6 h. Also, the results for the K in test [6], in test [7] and in test [10] were 0.041 min⁻¹, 0.028 min⁻¹ and 0.049 min⁻¹, respectively.
As to `CCCCC1=NC2(CCCC2)C(=O)N1Cc1ccc(-c2ccccc2-c2nnn[nH]2)cc1`, the TIME in [11] worked out at 0.417 h; in [1] it was 0.283 h; in test [14] it was 0.15 h; in test [15], 0.167 h; in [3], 0.433 h; in test [18], 0.15 h. The K was 0.128 min⁻¹ in [12]; 0.104 min⁻¹ in test [13]; 0.058 min⁻¹ in test [2]; 0.101 min⁻¹ in test [16]; 0.04 min⁻¹ in [17]; 0.039 min⁻¹ in [4].
Consider `CCOc1nc2cccc(C(=O)O)c2n1Cc1ccc(-c2ccccc2-c2nnn[nH]2)cc1`, for which the TIME in test [1] turned out to be 4.45 h; in test [19], 3.65 h; in test [5], 3.62 h; in [8], 2.7 h; in test [9], 16.6 h; in test [3], 7.57 h. Further, the K in [2] was found to be 0.003 min⁻¹; in [20], 0.004 min⁻¹; in test [6] it was 0.006 min⁻¹; in [7], 0.001 min⁻¹; in [10], 0.005 min⁻¹; in [4] it was 0.002 min⁻¹.
